# In US12715844B2, “Compound, preparation method therefor, composition, kit and use thereof” (SIGNDO BIOTECHNOLOGY (SUZHOU) CO., LTD, priority 2023, dated 2026):
# Several values for one entry are separate records, joined by “and”; a condition that tells them apart may be missing. Equal values may be shown once.
# Columns and labels:
# PSMA receptor = biological target: T1, PSMA receptor (Homo sapiens, UniProt Q04609); assay: Receptor binding detected by flow cytometry in vitro (competitive binding with DUPA-FITC); details: 22RV1 (PSMA+) cells, competition with 100 nmol/L DUPA-FITC
# T1 construct: endogenous in cells; host or cells: 22RV1 (PSMA+); PC3 (PSMA−) as negative control
# T1 sequence (Q04609 whole entry): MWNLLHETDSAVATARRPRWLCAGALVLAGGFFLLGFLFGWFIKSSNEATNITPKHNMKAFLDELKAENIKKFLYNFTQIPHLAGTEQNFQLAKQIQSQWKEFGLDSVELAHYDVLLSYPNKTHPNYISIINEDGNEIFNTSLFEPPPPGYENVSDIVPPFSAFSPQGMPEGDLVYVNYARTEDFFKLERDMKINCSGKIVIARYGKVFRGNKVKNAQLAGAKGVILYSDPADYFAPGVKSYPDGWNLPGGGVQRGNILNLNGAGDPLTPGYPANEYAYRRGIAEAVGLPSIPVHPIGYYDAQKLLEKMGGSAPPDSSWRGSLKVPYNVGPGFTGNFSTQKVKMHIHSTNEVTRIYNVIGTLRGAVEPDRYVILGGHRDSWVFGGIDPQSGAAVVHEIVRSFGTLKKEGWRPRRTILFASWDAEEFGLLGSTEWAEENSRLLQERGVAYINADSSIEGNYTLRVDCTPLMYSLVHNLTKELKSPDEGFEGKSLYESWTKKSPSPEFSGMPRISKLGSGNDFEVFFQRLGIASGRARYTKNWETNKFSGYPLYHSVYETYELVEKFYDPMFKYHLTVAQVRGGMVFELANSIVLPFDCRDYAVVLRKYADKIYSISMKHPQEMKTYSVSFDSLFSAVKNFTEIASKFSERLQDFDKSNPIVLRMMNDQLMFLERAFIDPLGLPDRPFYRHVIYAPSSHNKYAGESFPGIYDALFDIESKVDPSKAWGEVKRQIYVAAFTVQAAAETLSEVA
# Source text: 1. Receptor Binding was Detected by Flow Cytometry In Vitro:
# Prostate-specific membrane antigen (PSMA) is overexpressed on prostate cancer cells. Both DUPA-FITC and DGPR1008 are capable of targeting the PSMA receptor in prostate cancer cells, with the difference being that DUPA-FITC is connected to a visible light dye (Ex=495 nm, Em=520 nm), whereas DGPR1008 is connected to a near-infrared dye (Ex=776 nm, Em=793 nm). Since the majority types of lasers equipped in flow cytometers operate within the visible light spectrum, the binding affinity of DGPR1008 to the receptor can not be directly measured. Therefore, the competitive binding of DGPR1008 with DUPA-FITC to PSMA is employed to indirectly assess the binding affinity of the test compound to the receptor.
# DGPR1008, DUPA-FITC, 22RV1 (PSMA+), PC3 (PSMA−), 1640 culture medium, FBS, double antibiotics, trypsin, centrifuge, 4° C. constant temperature incubator, flow cytometer.
# Drug preparation: 100 nmol/L DUPA-FITC was prepared using culture medium. The test compound was diluted to nine concentrations (0.00098 μM, 0.002 μM, 0.008 μM, 0.01 μM, 0.03 μM, 0.05 μM, 0.09 μM, 0.1 μM, and 0.125 μM) using culture medium containing 100 nmol/L DUPA-FITC, with three replicate wells for each concentration.
# Cell culture: The cells were seeded in T75 culture flasks. After 48 h, cells in the logarithmic growth phase were taken, digested with trypsin for 1-2 min, and the digestion was then terminated by adding fresh culture medium. After cell counting, the cells were transferred into a 96-well plate (1×10^5 cells/well), totaling 27 wells. The culture medium was discarded by centrifugation (800 rpm, 5 min), and the cells were washed twice with PBS and then centrifuged to collect the cell pellet. The prepared culture media with 9 concentrations were added to the cell-containing wells, with three replicates for each concentration. The cells were incubated at 4° C. in the dark for 30 min, and then the culture medium in the wells was discarded. Cells were washed by adding 300 μL of fresh culture medium (twice) and saline (once) to each well, followed by resuspension in 300 μL of saline for flow cytometry detection.
# [1] = Acute toxicity experiment on rats; details: three dose groups of high, medium and low doses
# [2] = Pharmacokinetic parameters in rat plasma; format: in vivo; details: for clearance in rats in vivo, in words: compared with OTL78
# 22RV1 (PSMA+) [3] = assay: In vivo live imaging comparison with the existing product OTL78; design: species or system mice; details: for TBR (tumor-to-background ratio), in words: from about 2 h to 72 h; for fluorescence value at the tumor site compared with OTL78: mice, each time point; for TBR compared with OTL78: relative to OTL78; for TBR (mean) / fluorescence value at the tumor site: 10 nmol/mouse; for TBR (mean): 200 μL/mouse
# Source text: (§1) “V” denotes the volume-to-mass ratio. […] Mice refer to BALB/c nude mice, 6-8 weeks old, weighing 18-20 g; rats refer to SD rats: 8 weeks old, approximately 250 g.
# 3. Comparison with the Existing Product OTL78
# (§2) The Prostate-specific membrane antigen (PSMA) is overexpressed on prostate cancer cells. The test compound is a PSMA-targeting molecule conjugated with a near-infrared region I dye. The test compound can bind to PSMA and “illuminate” cancer cells upon excitation by a near-infrared light source. In this experiment, the in vivo and ex vivo tissue distribution of the test compound in mice is detected using in vivo live imaging.
# DGPR1008, 22RV1 (PSMA+), BALB/c nude mouse, 1640 culture medium, FBS, double antibodies, trypsin, Matrigel (BD), vernier caliper, centrifuge, IVIS live imager.
# (§3) Matrigel was thawed on ice in advance, and the culture medium was pre-cooled on ice. After centrifugation, the cells were resuspended in the pre-cooled culture medium, followed by the addition of HC Matrigel gel in a volume equal to the culture medium. The centrifuge tube containing the cells was placed on ice and transferred to the animal facility. The cells were thoroughly dispersed before inoculation. The back of the neck was disinfected with an alcohol cotton ball, and a single intravenous administration was performed with an inoculation volume of 200 μL per mouse. All operations were performed on ice. When the tumor volume reached 300-400 mm^3, the mice were grouped for administration. Six mice with well-grown and regularly shaped tumors were selected into the group. The six mice were randomly divided into two groups: G1 (OTL78 10 nmol/mouse) and G2 (DGPR1008 10 nmol/mouse) with three mice in each group. The scanning time: 1, 2, 4, 8, 24, and 72 h.
# (1) Results and Data of In Vivo Live Imaging of Drug Efficacy (Mice were Used as Experimental Subjects in this Part)
# 22RV1 (PSMA+) [4] = assay: 2-hour ex vivo tissue distribution: fluorescence of tumor and in situ normal prostate; design: species or system mice; details: for discrimination capability (tumor vs normal prostate) compared with OTL78: relative to OTL78; for Prostate fluorescence / Tumor fluorescence / T/P Ratio: 2 h ex vivo, 10 nmol/mouse; for T/P Ratio: tumor to in situ normal prostate
# Source text: as §2, §3
# (2) Results of 2-Hour Ex Vivo Tissue Distribution: Fluorescence Ratio of Tumor to In Situ Normal Prostate: […]
# 22RV1 (PSMA+) [5] = assay: Drug efficacy validation by in vivo live imaging, three dose groups; design: species or system mice; details: for targeting properties: 22RV1 tumor mice, in vivo live imaging; for enrichment in the prostate cancer tumor site: high, medium and low doses (25, 50, 100 nmol/mouse), scans 1-48 h
# Source text: as §1
# 2. Drug Efficacy Validation Experiment Using In Vivo Live Imaging
# Prostate-specific membrane antigen (PSMA) is overexpressed on prostate cancer cells. The test compound is a PSMA-targeting molecule conjugated with a near-infrared region I dye. The test compound can bind to PSMA and “illuminate” cancer cells upon excitation by a near-infrared light source. In this experiment, the in vivo tissue distribution of the test compound in mice is detected using in vivo live imaging.
# DGPR1008, 22RV1 (PSMA+), PC3 (PSMA−), 1640 culture medium, FBS, double antibodies, trypsin, Matrigel (BD), vernier caliper, centrifuge, IVIS live imager.
# Matrigel was thawed on ice in advance, and the culture medium was pre-cooled on ice. After centrifugation, the cells were resuspended in the pre-cooled culture medium, followed by the addition of HC Matrigel gel in a volume equal to the culture medium. The centrifuge tube containing the cells was placed on ice and transferred to the animal facility. The cells were thoroughly dispersed before inoculation. The right dorsal shoulder area of the mice was disinfected with an alcohol cotton ball, and a single intravenous administration was performed with an inoculation volume of 200 μL per mouse. All operations were performed on ice. When the tumor volume reached 300-400 mm^3, the mice were grouped for administration. Nine mice with well-grown and regularly shaped tumors were selected into the group. The nine mice were randomly divided into three groups: G1 (25 nmol/mouse), G2 (50 nmol/mouse), and G3 (100 nmol/mouse), with three mice in each group. The scanning time: 1, 2, 4, 8, 24, and 48 h.
Compound,binding affinity to PSMA receptor (PSMA receptor),toxic reactions in acute toxicity experiment [1],"clearance in rats in vivo, in words [2]","TBR (tumor-to-background ratio), in words (22RV1 (PSMA+) [3])",fluorescence value at the tumor site compared with OTL78 (22RV1 (PSMA+) [3]),TBR compared with OTL78 (22RV1 (PSMA+) [3]),discrimination capability (tumor vs normal prostate) compared with OTL78 (22RV1 (PSMA+) [4]),targeting properties (22RV1 (PSMA+) [5]),enrichment in the prostate cancer tumor site (22RV1 (PSMA+) [5]),also measured
CC1(C)C(=CC=C2CCCC(C=CC3=[N+](CCCCS(=O)(=O)[O-])c4ccc(S(=O)(=O)[O-])cc4C3(C)C)=C2Oc2ccc(CC(NC(=O)CCOCCOCCNC(=O)CCC(NC(=O)NC(CCC(=O)[O-])C(=O)[O-])C(=O)[O-])C(=O)[O-])cc2)N(CCCCS(=O)(=O)[O-])c2ccc(S(=O)(=O)[O-])cc21.[K+].[K+].[K+].[K+].[K+].[K+].[K+] (centres unmarked) [Example 12],good affinity,no toxic reactions were observed,cleared more rapidly,good TBR,greater fluorescence values at the tumor site than OTL78,higher TBR,approximately 5 fold,good targeting properties,enriched in the prostate cancer tumor site,
CC1(C)C(=CC=C2CCCC(C=CC3=[N+](CCCCS(=O)(=O)[O-])c4ccc(S(=O)(=O)[O-])cc4C3(C)C)=C2Oc2ccc(CC(NC(=O)CCOCCOCCNC(=O)CCC(NC(=O)NC(CCC(=O)[O-])C(=O)[O-])C(=O)[O-])C(=O)[O-])cc2)N(CCCCS(=O)(=O)[O-])c2ccc(S(=O)(=O)[O-])cc21.[Li+].[Li+].[Li+].[Li+].[Li+].[Li+].[Li+] (centres unmarked) [Example 13],good affinity,no toxic reactions were observed,cleared more rapidly,good TBR,greater fluorescence values at the tumor site than OTL78,higher TBR,approximately 5 fold,good targeting properties,enriched in the prostate cancer tumor site,
CC1(C)C(=CC=C2CCCC(C=CC3=[N+](CCCCS(=O)(=O)[O-])c4ccc(S(=O)(=O)[O-])cc4C3(C)C)=C2Oc2ccc(CC(NC(=O)CCOCCCOCCCNC(=O)CCC(NC(=O)NC(CCC(=O)[O-])C(=O)[O-])C(=O)[O-])C(=O)[O-])cc2)N(CCCCS(=O)(=O)[O-])c2ccc(S(=O)(=O)[O-])cc21.[Na+].[Na+].[Na+].[Na+].[Na+].[Na+].[Na+] (centres unmarked) [Example 31],good affinity,no toxic reactions were observed,cleared more rapidly,good TBR,greater fluorescence values at the tumor site than OTL78,higher TBR,approximately 5 fold,good targeting properties,enriched in the prostate cancer tumor site,
CC1(C)C(=CC=C2CCCC(C=CC3=[N+](CCCCS(=O)(=O)[O-])c4ccc(S(=O)(=O)[O-])cc4C3(C)C)=C2Oc2ccc(CC(NC(=O)CCOCCCOCCCOCCOCCOCCNC(=O)CCC(NC(=O)NC(CCC(=O)[O-])C(=O)[O-])C(=O)[O-])C(=O)[O-])cc2)N(CCCCS(=O)(=O)[O-])c2ccc(S(=O)(=O)[O-])cc21.[Na+].[Na+].[Na+].[Na+].[Na+].[Na+].[Na+] (centres unmarked) [Example 41],good affinity,no toxic reactions were observed,cleared more rapidly,good TBR,greater fluorescence values at the tumor site than OTL78,higher TBR,approximately 5 fold,good targeting properties,enriched in the prostate cancer tumor site,
"CC1(C)C(/C=C/C2=C(Oc3ccc(C[C@H](NC(=O)[C@H](Cc4ccccc4)NC(=O)CCOCCOCCNC(=O)CC[C@H](NC(=O)N[C@@H](CCC(=O)O)C(=O)O)C(=O)O)C(=O)O)cc3)C(=C/C=C3/N(CCCCS(=O)(=O)O)c4ccc(S(=O)(=O)O)cc4C3(C)C)/CCC2)=[N+](CCCCS(=O)(=O)[O-])c2ccc(S(=O)(=O)O)cc21 [OTL78, reference compound]",,,,,,,,,,"average AUC0-t ([2]; rats, 2 mg/kg, plasma): 9429 ng·h/mL; average clearance ([2]; rats, 2 mg/kg, plasma): 3.50 mL/min/kg; TBR (mean) (22RV1 (PSMA+) [3]; 1 h): 1.30; TBR (mean) (22RV1 (PSMA+) [3]; 2 h): 1.35; TBR (mean) (22RV1 (PSMA+) [3]; 4 h): 1.38; TBR (mean) (22RV1 (PSMA+) [3]; 8 h): 1.36; TBR (mean) (22RV1 (PSMA+) [3]; 24 h): 1.55; TBR (mean) (22RV1 (PSMA+) [3]; 72 h): 1.65; fluorescence value at the tumor site (22RV1 (PSMA+) [3]; 1 h): 8.75E+09; fluorescence value at the tumor site (22RV1 (PSMA+) [3]; 2 h): 6.58E+09; fluorescence value at the tumor site (22RV1 (PSMA+) [3]; 4 h): 3.27E+09; fluorescence value at the tumor site (22RV1 (PSMA+) [3]; 8 h): 1.71E+09; fluorescence value at the tumor site (22RV1 (PSMA+) [3]; 24 h): 1.41E+09; fluorescence value at the tumor site (22RV1 (PSMA+) [3]; 72 h): 9.69E+08; Prostate fluorescence (22RV1 (PSMA+) [4]; group mean): 3.27E+09 photon/second; Tumor fluorescence (22RV1 (PSMA+) [4]; group mean): 7.26E+09 photon/second; Prostate fluorescence (22RV1 (PSMA+) [4]; individual animal): 4.77E+08 photon/second and 8.11E+09 photon/second and 1.23E+09 photon/second; Tumor fluorescence (22RV1 (PSMA+) [4]; individual animal): 7.07E+09 photon/second and 1.01E+10 photon/second and 4.61E+09 photon/second; T/P Ratio (22RV1 (PSMA+) [4]; group mean): 6.61; T/P Ratio (22RV1 (PSMA+) [4]; individual animal): 14.8 and 1.25 and 3.75"
